# Test results: patent US20230398130A1, “METHODS AND COMPOSITIONS FOR DIFFERENTIATING STEM CELLS” (Massachusetts Institute of Technology, priority 2020, published 2023)
# Legend:
# ISC-enriched organoids [1] = experiment: Primary screen, 384-well 2.5-D organoid differentiation (ENR+CD, 6 days, Target Selective Inhibitor Library, vs whole-plate median): ATP (CellTiter-Glo 3D, CTG); conditions: for Dose.FC.CTG: FC vs plate median; for SSMD.CTG: strictly standardized mean difference; for Dose.FC.CTG (log 2 fold change): vs plate median
# ISC-enriched organoids [2] = experiment: Primary screen, 384-well 2.5-D organoid differentiation (ENR+CD, 6 days): basal lysozyme secretion (LYZ.NS); assay type: cell-based, murine; conditions: for Dose.FC.LYZ.NS: FC vs plate median; for SSMD.LYZ.NS: strictly standardized mean difference; for Dose.FC.LYZ.NS (log 2 fold change): vs plate median
# From the text: (§1) High-throughput screening.
# ISC-enriched organoids [3] = experiment: Primary screen, 384-well 2.5-D organoid differentiation (ENR+CD, 6 days): carbachol-induced lysozyme secretion (LYZ.S); assay type: cell-based, murine; conditions: for Dose.FC.LYZ.S: FC vs plate median; for Z.LYZ.S: standard z score; for SSMD.LYZ.S: strictly standardized mean difference; for Dose.FC.LYZ.S (log 2 fold change): vs plate median
# From the text: as §1
# [4] = Dose 0.08 uM, primary screen, standard z score
# [5] = Dose 0.40 uM, primary screen, standard z score
# [6] = Dose 2.00 uM, primary screen, standard z score
# [7] = Dose 10.00 uM, primary screen, standard z score
# [8] = primary screen, 1st of the 4 dose lines of the treatment (dose not given)
# [9] = primary screen, 2nd of the 4 dose lines of the treatment (dose not given)
# [10] = primary screen, 3rd of the 4 dose lines of the treatment (dose not given)
# [11] = primary screen, 4th of the 4 dose lines of the treatment (dose not given)
# [12] = Dose 0.08 uM, standard z score of FC
# [13] = Dose 0.40 uM, standard z score of FC
# [14] = Dose 2.00 uM, standard z score of FC
# [15] = Dose 10.00 uM, standard z score of FC
compound,measurement,setting,value
Ifenprodil Tartrate,Dose.FC.CTG,"ISC-enriched organoids [1]; Dose 0.08 uM, primary screen",0.102 log 2 fold change
same,Z.CTG,ISC-enriched organoids [1]; [4],0.243
same,Dose.FC.CTG,"ISC-enriched organoids [1]; Dose 0.40 uM, primary screen",0.111 log 2 fold change
same,Z.CTG,ISC-enriched organoids [1]; [5],0.265
same,Dose.FC.CTG,"ISC-enriched organoids [1]; Dose 2.00 uM, primary screen",−0.003 log 2 fold change
same,Z.CTG,ISC-enriched organoids [1]; [6],−0.008
same,Dose.FC.CTG,"ISC-enriched organoids [1]; Dose 10.00 uM, primary screen",−1.034 log 2 fold change
same,Z.CTG,ISC-enriched organoids [1]; [7],−2.471
same,SSMD.CTG,ISC-enriched organoids [1]; [8],0.218
same,SSMD.CTG,ISC-enriched organoids [1]; [9],0.279
same,SSMD.CTG,ISC-enriched organoids [1]; [10],−0.009
same,SSMD.CTG,ISC-enriched organoids [1]; [11],−1.277
same,Dose.FC.LYZ.NS,"ISC-enriched organoids [2]; Dose 0.08 uM, primary screen",0.056 log 2 fold change
same,Z.LYZ.NS,ISC-enriched organoids [2]; [4],0.492
same,Dose.FC.LYZ.NS,"ISC-enriched organoids [2]; Dose 0.40 uM, primary screen",−0.019 log 2 fold change
same,Z.LYZ.NS,ISC-enriched organoids [2]; [5],−0.161
same,Dose.FC.LYZ.NS,"ISC-enriched organoids [2]; Dose 2.00 uM, primary screen",0.123 log 2 fold change
same,Z.LYZ.NS,ISC-enriched organoids [2]; [6],1.068
same,Dose.FC.LYZ.NS,"ISC-enriched organoids [2]; Dose 10.00 uM, primary screen",−0.219 log 2 fold change
same,Z.LYZ.NS,ISC-enriched organoids [2]; [7],−1.909
same,SSMD.LYZ.NS,ISC-enriched organoids [2]; [8],0.372
same,SSMD.LYZ.NS,ISC-enriched organoids [2]; [9],−0.116
same,SSMD.LYZ.NS,ISC-enriched organoids [2]; [10],0.504
same,SSMD.LYZ.NS,ISC-enriched organoids [2]; [11],−1.176
same,Dose.FC.LYZ.S,"ISC-enriched organoids [3]; Dose 0.08 uM, primary screen",0.050 log 2 fold change
same,Dose.FC.LYZ.S,"ISC-enriched organoids [3]; Dose 0.40 uM, primary screen",0.017 log 2 fold change
same,Dose.FC.LYZ.S,"ISC-enriched organoids [3]; Dose 2.00 uM, primary screen",−0.023 log 2 fold change
same,Dose.FC.LYZ.S,"ISC-enriched organoids [3]; Dose 10.00 uM, primary screen",−0.301 log 2 fold change
same,Z.LYZ.S,ISC-enriched organoids [3]; [8],0.325
same,Z.LYZ.S,ISC-enriched organoids [3]; [9],0.107
same,Z.LYZ.S,ISC-enriched organoids [3]; [10],−0.151
same,Z.LYZ.S,ISC-enriched organoids [3]; [11],−1.947
same,SSMD.LYZ.S,ISC-enriched organoids [3]; [8],0.255
same,SSMD.LYZ.S,ISC-enriched organoids [3]; [9],0.091
same,SSMD.LYZ.S,ISC-enriched organoids [3]; [10],−0.103
same,SSMD.LYZ.S,ISC-enriched organoids [3]; [11],−1.030
CC(C)(C)c1nc(-c2cccc(NS(=O)(=O)c3c(F)cccc3F)c2F)c(-c2ccnc(N)n2)s1 [Dabrafenib (GSK2118436)],Dose.FC.CTG,"ISC-enriched organoids [1]; Dose 0.08 uM, ENR+CD, 6 days",−0.134 log 2 fold change
same,Z.CTG,ISC-enriched organoids [1]; [12],−0.320
same,Dose.FC.CTG,"ISC-enriched organoids [1]; Dose 0.40 uM, ENR+CD, 6 days",0.011 log 2 fold change
same,Z.CTG,ISC-enriched organoids [1]; [13],0.026
same,Dose.FC.CTG,"ISC-enriched organoids [1]; Dose 2.00 uM, ENR+CD, 6 days",−0.279 log 2 fold change
same,Z.CTG,ISC-enriched organoids [1]; [14],−0.667
same,Dose.FC.CTG,"ISC-enriched organoids [1]; Dose 10.00 uM, ENR+CD, 6 days",−0.800 log 2 fold change
same,Z.CTG,ISC-enriched organoids [1]; [15],−1.911
same,Dose.FC.LYZ.NS,"ISC-enriched organoids [2]; Dose 0.08 uM, ENR+CD, 6 days",0.095 log 2 fold change
same,Z.LYZ.NS,ISC-enriched organoids [2]; [12],0.830
same,Dose.FC.LYZ.NS,"ISC-enriched organoids [2]; Dose 0.40 uM, ENR+CD, 6 days",0.049 log 2 fold change
same,Z.LYZ.NS,ISC-enriched organoids [2]; [13],0.427
same,Dose.FC.LYZ.NS,"ISC-enriched organoids [2]; Dose 2.00 uM, ENR+CD, 6 days",−0.001 log 2 fold change
same,Z.LYZ.NS,ISC-enriched organoids [2]; [14],−0.006
same,Dose.FC.LYZ.NS,"ISC-enriched organoids [2]; Dose 10.00 uM, ENR+CD, 6 days",−0.250 log 2 fold change
same,Z.LYZ.NS,ISC-enriched organoids [2]; [15],−2.178
same,Dose.FC.LYZ.S,"ISC-enriched organoids [3]; Dose 0.08 uM, ENR+CD, 6 days",0.236 log 2 fold change
same,Dose.FC.LYZ.S,"ISC-enriched organoids [3]; Dose 0.40 uM, ENR+CD, 6 days",0.103 log 2 fold change
same,Dose.FC.LYZ.S,"ISC-enriched organoids [3]; Dose 2.00 uM, ENR+CD, 6 days",0.019 log 2 fold change
same,Dose.FC.LYZ.S,"ISC-enriched organoids [3]; Dose 10.00 uM, ENR+CD, 6 days",−0.384 log 2 fold change
N#CSc1cc(SC#N)c(N)nc1N [PR-619],Dose.FC.CTG,"ISC-enriched organoids [1]; Dose 0.08 uM, primary screen",0.054 log 2 fold change
same,Z.CTG,ISC-enriched organoids [1]; [12],0.130
same,Z.CTG (standard z score),"ISC-enriched organoids [1]; Dose 0.40 uM, primary screen",0.266
same,Dose.FC.CTG (log 2 fold change),"ISC-enriched organoids [1]; Dose 0.40 uM, primary screen",0.111
same,Z.CTG (standard z score),"ISC-enriched organoids [1]; Dose 2.00 uM, primary screen",0.053
same,Dose.FC.CTG (log 2 fold change),"ISC-enriched organoids [1]; Dose 2.00 uM, primary screen",0.022
same,Z.CTG (standard z score),"ISC-enriched organoids [1]; Dose 10.00 uM, primary screen",−0.764
same,Dose.FC.CTG (log 2 fold change),"ISC-enriched organoids [1]; Dose 10.00 uM, primary screen",−0.320
same,Dose.FC.LYZ.NS,"ISC-enriched organoids [2]; Dose 0.08 uM, primary screen",0.100 log 2 fold change
same,Z.LYZ.NS,ISC-enriched organoids [2]; [12],0.872
same,Z.LYZ.NS (standard z score),"ISC-enriched organoids [2]; Dose 0.40 uM, primary screen",0.448
same,Dose.FC.LYZ.NS (log 2 fold change),"ISC-enriched organoids [2]; Dose 0.40 uM, primary screen",0.051
same,Z.LYZ.NS (standard z score),"ISC-enriched organoids [2]; Dose 2.00 uM, primary screen",0.495
same,Dose.FC.LYZ.NS (log 2 fold change),"ISC-enriched organoids [2]; Dose 2.00 uM, primary screen",0.057
same,Z.LYZ.NS (standard z score),"ISC-enriched organoids [2]; Dose 10.00 uM, primary screen",−1.687
same,Dose.FC.LYZ.NS (log 2 fold change),"ISC-enriched organoids [2]; Dose 10.00 uM, primary screen",−0.194
same,Dose.FC.LYZ.S,"ISC-enriched organoids [3]; Dose 0.08 uM, primary screen",0.122 log 2 fold change
same,Dose.FC.LYZ.S (log 2 fold change),"ISC-enriched organoids [3]; Dose 0.40 uM, primary screen",0.047
same,Dose.FC.LYZ.S (log 2 fold change),"ISC-enriched organoids [3]; Dose 2.00 uM, primary screen",0.081
same,Dose.FC.LYZ.S (log 2 fold change),"ISC-enriched organoids [3]; Dose 10.00 uM, primary screen",−0.193
O=C(C[S+]([O-])Cc1ccco1)NC/C=C\COc1cc(CN2CCCCC2)ccn1 (stereo not drawn) [Lafutidine],Z.CTG,ISC-enriched organoids [1]; [4],0.363
same,Z.CTG,ISC-enriched organoids [1]; [5],0.346
same,Z.CTG,ISC-enriched organoids [1]; [6],0.329
same,Z.CTG,ISC-enriched organoids [1]; [7],−0.235
same,SSMD.CTG,ISC-enriched organoids [1]; [8],0.452
same,SSMD.CTG,ISC-enriched organoids [1]; [9],0.476
same,SSMD.CTG,ISC-enriched organoids [1]; [10],0.505
same,SSMD.CTG,ISC-enriched organoids [1]; [11],−0.249
same,SSMD.LYZ.NS,ISC-enriched organoids [2]; [8],0.285
same,SSMD.LYZ.NS,ISC-enriched organoids [2]; [9],0.064
same,SSMD.LYZ.NS,ISC-enriched organoids [2]; [10],0.359
same,SSMD.LYZ.NS,ISC-enriched organoids [2]; [11],0.581
same,Z.LYZ.S,ISC-enriched organoids [3]; [8],0.339
same,Z.LYZ.S,ISC-enriched organoids [3]; [9],0.506
same,Z.LYZ.S,ISC-enriched organoids [3]; [10],0.491
same,Z.LYZ.S,ISC-enriched organoids [3]; [11],−0.093
same,SSMD.LYZ.S,ISC-enriched organoids [3]; [8],0.331
same,SSMD.LYZ.S,ISC-enriched organoids [3]; [9],0.460
same,SSMD.LYZ.S,ISC-enriched organoids [3]; [10],0.503
same,SSMD.LYZ.S,ISC-enriched organoids [3]; [11],−0.111
